Data set [1] has as its target Tyrosine-protein kinase JAK2 (Homo sapiens, UniProt O60674). The class given is ADME.
The target of data set [2] is Tyrosine-protein kinase JAK1 (Homo sapiens, UniProt P23458). Description: Inhibition of recombinant human GST-tagged JAK1 cytoplasmic domain (866 to 1154 residues) expressed in baculovirus expression system using TK-substrate-biotin preincubated for 5 mins followed by substrate addition and measured after 30 mins by HTRF assay. Background: Time-resolved FRET reads energy transfer from a long-lived donor to a nearby acceptor.
Chain of Tyrosine-protein kinase JAK1 (P23458 whole entry, the tested form may be a part): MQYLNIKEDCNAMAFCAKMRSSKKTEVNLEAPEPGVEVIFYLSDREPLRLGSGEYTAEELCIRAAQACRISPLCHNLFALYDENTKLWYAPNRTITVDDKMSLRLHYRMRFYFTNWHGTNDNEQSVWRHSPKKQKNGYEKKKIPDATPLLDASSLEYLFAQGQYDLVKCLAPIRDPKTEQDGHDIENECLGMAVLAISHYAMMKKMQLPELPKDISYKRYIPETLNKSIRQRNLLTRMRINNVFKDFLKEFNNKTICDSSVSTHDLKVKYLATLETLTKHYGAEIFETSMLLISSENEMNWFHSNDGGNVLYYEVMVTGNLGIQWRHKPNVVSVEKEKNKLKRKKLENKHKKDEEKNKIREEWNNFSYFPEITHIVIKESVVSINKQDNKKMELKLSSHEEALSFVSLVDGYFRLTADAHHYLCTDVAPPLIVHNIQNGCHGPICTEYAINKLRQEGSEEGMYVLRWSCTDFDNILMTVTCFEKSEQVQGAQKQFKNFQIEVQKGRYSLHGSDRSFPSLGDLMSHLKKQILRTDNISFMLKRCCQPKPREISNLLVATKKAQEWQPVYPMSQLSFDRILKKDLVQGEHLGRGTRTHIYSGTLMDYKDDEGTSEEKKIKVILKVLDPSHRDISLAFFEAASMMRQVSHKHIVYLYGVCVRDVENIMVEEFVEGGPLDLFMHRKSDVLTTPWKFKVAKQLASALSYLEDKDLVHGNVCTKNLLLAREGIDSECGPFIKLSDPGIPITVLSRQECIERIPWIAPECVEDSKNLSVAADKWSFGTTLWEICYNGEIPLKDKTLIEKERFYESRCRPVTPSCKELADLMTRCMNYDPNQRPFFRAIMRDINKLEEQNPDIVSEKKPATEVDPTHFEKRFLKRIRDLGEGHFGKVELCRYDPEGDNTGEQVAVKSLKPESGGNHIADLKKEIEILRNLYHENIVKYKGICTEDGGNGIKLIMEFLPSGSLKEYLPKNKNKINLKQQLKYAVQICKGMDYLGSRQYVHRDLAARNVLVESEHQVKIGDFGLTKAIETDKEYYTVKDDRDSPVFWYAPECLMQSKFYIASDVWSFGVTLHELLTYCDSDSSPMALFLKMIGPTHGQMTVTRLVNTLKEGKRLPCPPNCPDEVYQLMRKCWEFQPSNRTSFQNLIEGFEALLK

Data set [3] deals with T1, Tyrosine-protein kinase JAK3 (Mus musculus) (UniProt Q62137).
T1 sequence (whole entry): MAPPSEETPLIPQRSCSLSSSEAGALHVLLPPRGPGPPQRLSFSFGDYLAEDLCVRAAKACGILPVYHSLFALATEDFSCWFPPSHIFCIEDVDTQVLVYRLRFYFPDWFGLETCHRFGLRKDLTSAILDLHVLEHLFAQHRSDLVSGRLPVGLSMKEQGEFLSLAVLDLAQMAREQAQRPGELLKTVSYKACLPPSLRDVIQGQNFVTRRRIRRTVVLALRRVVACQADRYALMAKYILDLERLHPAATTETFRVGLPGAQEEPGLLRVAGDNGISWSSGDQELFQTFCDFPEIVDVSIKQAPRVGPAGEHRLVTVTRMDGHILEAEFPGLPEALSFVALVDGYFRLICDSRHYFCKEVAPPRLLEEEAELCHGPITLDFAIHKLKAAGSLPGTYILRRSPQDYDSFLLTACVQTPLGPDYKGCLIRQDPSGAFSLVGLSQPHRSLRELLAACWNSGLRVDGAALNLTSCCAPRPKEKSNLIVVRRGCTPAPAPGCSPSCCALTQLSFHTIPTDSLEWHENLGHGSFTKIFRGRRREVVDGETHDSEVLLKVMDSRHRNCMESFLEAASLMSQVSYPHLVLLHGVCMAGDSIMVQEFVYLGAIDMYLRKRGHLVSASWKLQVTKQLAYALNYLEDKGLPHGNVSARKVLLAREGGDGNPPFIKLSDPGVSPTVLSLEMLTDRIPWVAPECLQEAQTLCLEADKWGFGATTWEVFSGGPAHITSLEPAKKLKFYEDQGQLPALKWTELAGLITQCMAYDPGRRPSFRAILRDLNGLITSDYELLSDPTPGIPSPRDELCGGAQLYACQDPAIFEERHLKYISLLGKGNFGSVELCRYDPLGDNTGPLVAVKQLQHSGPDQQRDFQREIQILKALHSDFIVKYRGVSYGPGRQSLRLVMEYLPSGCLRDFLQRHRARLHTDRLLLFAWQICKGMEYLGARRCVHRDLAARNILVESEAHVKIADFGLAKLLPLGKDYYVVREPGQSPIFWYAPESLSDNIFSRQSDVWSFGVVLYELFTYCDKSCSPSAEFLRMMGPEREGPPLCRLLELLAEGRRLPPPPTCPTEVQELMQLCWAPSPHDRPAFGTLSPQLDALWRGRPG
Description: Inhibition of JAK3 in anti-CD3/-CD28 coated mouse T cells assessed as reduction in IL2-induced STAT5 phosphorylation at 10 uM preincubated for 1 hr followed by IL2 stimulation and measured after 30 mins by Western blot analysis. As to conditions: T cell. On the technique in general: A western blot detects proteins with antibodies after separation by electrophoresis.

Data set [4] concerns the target T2, Tyrosine-protein kinase JAK3 (Homo sapiens) (UniProt P52333).
T2 sequence (whole entry): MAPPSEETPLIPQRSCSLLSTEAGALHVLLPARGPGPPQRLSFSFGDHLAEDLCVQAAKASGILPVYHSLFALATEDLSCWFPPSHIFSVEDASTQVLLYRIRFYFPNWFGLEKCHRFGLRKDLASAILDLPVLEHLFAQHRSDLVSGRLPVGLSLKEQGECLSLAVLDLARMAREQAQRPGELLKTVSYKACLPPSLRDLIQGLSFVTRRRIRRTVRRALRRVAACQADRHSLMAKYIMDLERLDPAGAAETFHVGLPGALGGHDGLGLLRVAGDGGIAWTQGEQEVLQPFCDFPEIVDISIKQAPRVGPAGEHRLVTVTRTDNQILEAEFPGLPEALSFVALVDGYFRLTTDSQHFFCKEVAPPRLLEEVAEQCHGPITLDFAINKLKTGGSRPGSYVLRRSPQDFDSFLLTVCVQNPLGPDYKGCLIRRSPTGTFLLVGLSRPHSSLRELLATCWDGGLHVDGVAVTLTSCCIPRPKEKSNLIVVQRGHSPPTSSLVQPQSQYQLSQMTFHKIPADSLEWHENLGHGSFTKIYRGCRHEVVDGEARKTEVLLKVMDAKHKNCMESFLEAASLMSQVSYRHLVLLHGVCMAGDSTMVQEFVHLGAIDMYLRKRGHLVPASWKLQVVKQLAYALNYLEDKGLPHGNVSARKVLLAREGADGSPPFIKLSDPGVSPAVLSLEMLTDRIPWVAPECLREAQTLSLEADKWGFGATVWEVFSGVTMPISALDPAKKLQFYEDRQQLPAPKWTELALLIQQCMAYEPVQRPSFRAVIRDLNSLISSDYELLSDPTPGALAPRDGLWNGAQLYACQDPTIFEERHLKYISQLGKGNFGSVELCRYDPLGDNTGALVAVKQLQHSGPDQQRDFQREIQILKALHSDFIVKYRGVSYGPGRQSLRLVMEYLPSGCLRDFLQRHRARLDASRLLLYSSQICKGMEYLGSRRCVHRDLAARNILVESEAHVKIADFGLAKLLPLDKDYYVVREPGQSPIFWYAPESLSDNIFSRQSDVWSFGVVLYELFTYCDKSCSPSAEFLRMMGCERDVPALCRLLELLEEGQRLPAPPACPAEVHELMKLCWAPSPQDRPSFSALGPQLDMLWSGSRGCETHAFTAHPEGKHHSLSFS
Description: Inhibition of recombinant human GST-tagged JAK3 catalytic domain (781 to 1124 residues) expressed in baculovirus expression system using Tyr06 peptide as substrate at 100 nM incubated for 1 hr by Z'lyte assay relative to control.

Data set [5] has as its target ERBB4 (Receptor tyrosine-protein kinase erbB-4) (Homo sapiens, UniProt Q15303). Nature of the data set: Inhibition of recombinant human N-terminal GST-tagged ERBB4 catalytic domain (708 to 993 residues) expressed in baculovirus expression system at 100 nM using tyrosine-1 peptide as substrate incubated for 60 mins in presence of ATP by Z'-LYTE assay relative to control. As to conditions: probe tyrosine-1 peptide.

Data set [6] deals with T2, Tyrosine-protein kinase JAK3 (Homo sapiens). Nature of the data set: Irreversible inhibition of recombinant human GST-tagged JAK3 cytoplasmic domain (781 to 1124 residues) expressed in baculovirus expression system at IC90 using TK-substrate-biotin preincubated for 30 mins followed by 1000 fold dilution and measured after 24 hrs by HTRF assay. As to conditions: time 24.5 hrs.

Data set [7] in a line: Oral bioavailability in ICR mouse at 30 mg/kg administered as single dose via gavage by LC-MS/MS analysis. The class given is ADME, organism-based. The note with it: in vivo.
The test system of another data set is Mus musculus. Nature of the data set: Immunosuppressive activity in Balb/c mouse model of oxazolone-induced delayed type hypersensitivity assessed as appearance of well structured tissue architecture at 30 mg/kg, po measured after 7 days by H and E staining based histopathological analysis. Format: functional, organism-based. As to conditions: time 7.0 day.

Data set [8] can be described thus: Toxicity in Balb/c mouse model of oxazolone-induced delayed type hypersensitivity assessed as change in body weight up to 30 mg/kg, po. As to conditions: in vivo. The class given is organism-based.

The values that follow come from ChEMBL document CHEMBL4680201, “Design, synthesis, and pharmacological evaluation of 4- or 6-phenyl-pyrimidine derivatives as novel and selective Janus kinase 3 inhibitors” (Eur J Med Chem, 2020).

Structures are written as SMILES. Activity calls are given as the source filed them. The rule behind the calls is not given here.

Chain of Tyrosine-protein kinase JAK2 (O60674 whole entry, the tested form may be a part): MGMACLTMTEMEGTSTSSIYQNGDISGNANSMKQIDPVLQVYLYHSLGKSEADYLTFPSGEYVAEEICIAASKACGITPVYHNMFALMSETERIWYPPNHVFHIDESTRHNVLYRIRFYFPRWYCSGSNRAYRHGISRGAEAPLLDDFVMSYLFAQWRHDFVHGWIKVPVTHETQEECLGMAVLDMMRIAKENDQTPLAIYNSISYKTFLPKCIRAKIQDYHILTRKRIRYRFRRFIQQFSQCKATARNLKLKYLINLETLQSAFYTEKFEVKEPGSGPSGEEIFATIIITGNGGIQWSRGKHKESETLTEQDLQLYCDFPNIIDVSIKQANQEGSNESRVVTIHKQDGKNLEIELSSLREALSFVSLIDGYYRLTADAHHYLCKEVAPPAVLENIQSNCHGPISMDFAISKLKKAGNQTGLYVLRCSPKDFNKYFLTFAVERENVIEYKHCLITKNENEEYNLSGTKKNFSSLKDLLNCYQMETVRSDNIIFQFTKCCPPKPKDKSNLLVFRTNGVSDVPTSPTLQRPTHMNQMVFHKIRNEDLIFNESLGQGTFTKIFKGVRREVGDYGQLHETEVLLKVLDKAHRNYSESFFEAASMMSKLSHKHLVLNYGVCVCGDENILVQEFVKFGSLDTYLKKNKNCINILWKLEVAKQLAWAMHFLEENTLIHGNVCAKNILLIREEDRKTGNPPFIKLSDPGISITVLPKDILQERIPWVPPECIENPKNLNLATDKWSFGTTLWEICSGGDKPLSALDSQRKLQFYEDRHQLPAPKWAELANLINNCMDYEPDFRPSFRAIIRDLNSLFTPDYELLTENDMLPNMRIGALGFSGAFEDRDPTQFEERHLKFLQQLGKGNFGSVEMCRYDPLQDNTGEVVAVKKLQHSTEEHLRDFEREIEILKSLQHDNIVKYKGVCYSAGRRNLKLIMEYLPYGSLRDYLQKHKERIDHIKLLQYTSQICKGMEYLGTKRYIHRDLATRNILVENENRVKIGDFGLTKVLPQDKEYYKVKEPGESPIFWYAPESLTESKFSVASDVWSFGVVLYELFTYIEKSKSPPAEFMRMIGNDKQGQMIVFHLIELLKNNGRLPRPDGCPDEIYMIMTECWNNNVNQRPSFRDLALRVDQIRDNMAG
Chain of ERBB4 (Receptor tyrosine-protein kinase erbB-4) (Q15303 whole entry, the tested form may be a part): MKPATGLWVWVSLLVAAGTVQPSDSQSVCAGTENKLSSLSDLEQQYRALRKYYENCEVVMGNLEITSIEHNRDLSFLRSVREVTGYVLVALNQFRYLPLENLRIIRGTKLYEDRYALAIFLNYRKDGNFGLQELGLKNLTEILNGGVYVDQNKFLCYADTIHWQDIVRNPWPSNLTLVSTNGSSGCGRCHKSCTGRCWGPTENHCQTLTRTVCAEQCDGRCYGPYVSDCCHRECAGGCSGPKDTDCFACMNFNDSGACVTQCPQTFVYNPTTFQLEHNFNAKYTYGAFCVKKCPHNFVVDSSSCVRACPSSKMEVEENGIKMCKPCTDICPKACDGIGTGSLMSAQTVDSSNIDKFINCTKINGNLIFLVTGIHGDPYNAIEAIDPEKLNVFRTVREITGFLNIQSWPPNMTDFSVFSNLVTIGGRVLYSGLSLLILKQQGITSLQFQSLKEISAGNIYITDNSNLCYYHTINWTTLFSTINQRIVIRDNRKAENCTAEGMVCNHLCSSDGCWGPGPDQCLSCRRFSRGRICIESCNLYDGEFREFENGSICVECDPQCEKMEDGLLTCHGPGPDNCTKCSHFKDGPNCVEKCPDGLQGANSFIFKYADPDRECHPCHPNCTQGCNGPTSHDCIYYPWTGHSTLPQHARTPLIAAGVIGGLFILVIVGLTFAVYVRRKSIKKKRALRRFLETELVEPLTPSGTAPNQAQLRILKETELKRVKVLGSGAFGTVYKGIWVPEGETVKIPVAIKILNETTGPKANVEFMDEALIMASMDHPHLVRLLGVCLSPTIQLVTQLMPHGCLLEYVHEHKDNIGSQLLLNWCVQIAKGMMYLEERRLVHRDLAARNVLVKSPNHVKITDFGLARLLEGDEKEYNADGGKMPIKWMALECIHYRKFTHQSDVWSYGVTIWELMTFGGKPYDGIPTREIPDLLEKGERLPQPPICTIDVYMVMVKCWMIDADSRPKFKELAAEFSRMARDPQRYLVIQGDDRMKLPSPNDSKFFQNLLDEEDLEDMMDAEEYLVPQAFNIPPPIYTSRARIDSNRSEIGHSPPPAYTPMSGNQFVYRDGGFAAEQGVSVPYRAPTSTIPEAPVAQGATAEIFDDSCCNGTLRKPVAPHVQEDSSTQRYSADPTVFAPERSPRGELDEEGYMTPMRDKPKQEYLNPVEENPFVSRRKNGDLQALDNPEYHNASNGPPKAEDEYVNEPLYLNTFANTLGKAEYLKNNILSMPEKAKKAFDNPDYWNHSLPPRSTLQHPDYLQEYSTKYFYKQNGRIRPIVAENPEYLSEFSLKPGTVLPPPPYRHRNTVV

As usually defined, the IC50 is the midpoint of a concentration-inhibition curve. A word on the inhibition: it is how much of the control response was suppressed. One may read the bioavailability as the share of a dose that reaches the circulation, judged against a reference dose that is usually intravenous. Low values mean poor availability, high ones good availability. Turning to `C=CC(=O)Nc1ccc(-c2ccnc(Nc3ccc(N4CCOCC4)cc3)n2)cc1`, the IC50 was found to be 1000 nM in data set [1] and 1320 nM in data set [2]. For the same molecule, the inhibition entry in [3] and in [6] was “Active” in each case. Further, the inhibition in data set [4] came out at 100%. In addition, in data set [5], the inhibition at 1 h, 0.1 µM is 8%. The molecule also displayed a bioavailability in data set [7] of 23.8%. The outcome with Mus musculus was Active. Moreover, in [8], the Activity result was “Non-Toxic”.
